Data from US20250034586A1, “METHOD FOR EDITING BANANA GENES” (Tropic Biosciences UK Limited, priority 2021, published 2025).

Legend:
ACO1, Ma01_g11540 = assay: Trait co-editing in selected embryos (PBE #3); format: cell-based, banana
Description: (§1) We transformed ECS as described previously in Example 6, using the new co-editing plasmids detailed in Table 11 above. Embryos were regenerated as detailed previously, either on media without selection, with 25 mg/L G418, 25 μg/L CSF or 50 μg/L CSF. Initial genotyping of all plasmids tested:
(§2) • All with CsVMV-rAPOBEC1 CBE (rAPOBEC+nCas9 (D10A) PBE from Zong et al. 2017*) and nosP-NptII • pMol_0925 (sgGFP-pNOS::Kan::tOCS-pCsVMV::nCas9PBE1::tg7-Dummy-pTaU6::sg1GFP_58-pTaU6::sg2GFP_59) • pMol_0934 (sgGFP, sgALS1-pNOS::Kan::tOCS-pCsVMV::nCas9PBE1::tg7-taU6::MaALS1sg2_2021-pTaU6::sg1GFP_58-pTaU6::sg2GFP_59) • pMol_0935 (sgGFP, sgALS2-pNOS::Kan::tOCS-pCsVMV::nCas9PBE1::tg7-taU6::MaALS2sg2_2023-pTaU6::sg1GFP_58-pTaU6::sg2GFP_59) • pMol_0926 (sgPPO2, sgALS1-pNOS::Kan::tOCS-pCsVMV::nCas9PBE1::tg7-taU6::MaALS1sg2_2021-pTaU6::sg1PPO2_2961-pTaU6::sg2PPO2_2962-pTaU6::sg3PPO2_2963) • pMol_0927 (sgPPO2, sgALS1-pNOS::Kan::tOCS-pCsVMV::nCas9PBE1::tg7-taU6::MaALS1sg2_2021-pTaU6::sg3PPO2_2963-pTaU6::sg4PPO2_2964) • pMol_0928 (sgACO1, sgALS1-pNOS::Kan::tOCS-pCsVMV::nCas9PBE1::tg7-taU6::MaALS1sg2_2021-pTaU6::sg1ACO1_2965-pTaU6::sg2ACO1_2966-pTaU6::sg3ACO1_2967) • pMol_0929 (sgPPO2, sgALS2-pNOS::Kan::tOCS-pCsVMV::nCas9PBE1::tg7-taU6::MaALS2sg2_2023-pTaU6::sg1PPO2_2961-pTaU6::sg2PPO2_2962-pTaU6::sg3PPO2_2963) • pMol_0930 (sgPPO2, sgALS2-pNOS::Kan::tOCS-pCsVMV::nCas9PBE1::tg7-taU6::MaALS2sg2_2023-pTaU6::sg3PPO2_2963-pTaU6::sg4PPO2_2964) • pMol_0931 (sgACO1, sgALS2-pNOS::Kan::tOCS-pCsVMV::nCas9PBE1::tg7-taU6::MaALS2sg2_2023-pTaU6::sg1ACO1_2965-pTaU6::sg2ACO1_2966-pTaU6::sg3ACO1_2967) ECS were left to ‘recover’ after transformation for 1 week in CS+cefo 300 mg/L. We regenerated embryos in 4 different conditions: • 1. No selection • 2. Stable G418 selection (in EDM only 2-3 months) from PBE #3 only (PBE #1/2 plasmids only have mCherry, not NptII) • 3. 25 μg/L chlorsulfuron (in EDM only 2-3 months) • 4. 50 μg/L chlorsulfuron (in EDM only 2-3 months)
(§3) gDNA from embryos and plantlets was extracted and qPCR was used to test for the presence of integrated tDNA in the plant genome. Three independent qPCRs were run on each sample with different sets of primers (listed below) spanning the tDNA, ranging from the left to right border. An additional qPCR was run on an endogenous banana gene (actin) for normalisation of Ct values. All qPCRs were run on the LightCycler® 96 System (Roche) using PowerUp™ SYBR® Green Master Mix (Thermo Fisher Scientific™).
(§4) For edit validation, amplicons for each target gene (als1, als2, ppo2, aco1) were made using Q5® High-Fidelity 2× Master Mix (New England Biolabs, NEB) using reaction settings listed below. PCR products were purified using Monarch® PCR & DNA Cleanup Kit (NEB) according to manufacturer's specifications. The amplicons were after validated by Sanger sequencing.

PPO2, Ma07_g03540 = assay: Trait co-editing in selected embryos (PBE #3); format: cell-based, banana; conditions: for PPO2 edited embryos total: 16 embryos tested
Description: as §1, §2, §3, §4

[1] = tested on: banana embryos or leaf material; assay: Comparison of selection using ALS inhibitor, G418 or hygromycin (genotyping of embryos or leaf material); format: cell-based
Source text: In every case, regenerated material was transformed with constructs containing T-DNA that would generate resistance in positive transformants.

COc1nc(C)nc(NC(=O)NS(=O)(=O)c2ccccc2Cl)n1 [CSF, chlorsulfuron]
Percentage edited ACO1 embryos (ACO1, Ma01_g11540; 25CSF selection): 75
ACO1 edited embryos total (ACO1, Ma01_g11540; 25CSF selection, 8 embryos tested): 6
Percentage edited ACO1 embryos (ACO1, Ma01_g11540; 50CSF selection): 100
ACO1 edited embryos total (ACO1, Ma01_g11540; 50CSF selection, 7 embryos tested): 7
Percentage edited PPO2 embryos (PPO2, Ma07_g03540; 25CSF selection): 37.5
PPO2 edited embryos total (PPO2, Ma07_g03540; 25CSF selection): 6
Percentage edited PPO2 embryos (PPO2, Ma07_g03540; 50CSF selection): 43.75
PPO2 edited embryos total (PPO2, Ma07_g03540; 50CSF selection): 7
Editing frequency ([1]; CSF selected material): 90-94%
Efficiency of generating transgenic lines of banana ([1]; CSF selection, embryos and shoots): 75-84%
Editing frequency ([1]; Embryos, CSF selection): 57/63 = 90.5%
Non-transgenic edited ([1]; Embryos, CSF selection): 19/584 = 3.2%
Transgenic frequency ([1]; Embryos, CSF selection): 344/408 = 84.3%
Editing frequency ([1]; Shoots, CSF selection): 34/36 = 94.4%
Non-transgenic edited ([1]; Shoots, CSF selection): 3/46 = 6.5%
Transgenic frequency ([1]; Shoots, CSF selection): 53/70 = 75.7%
